Assay results from US5288757A, “Aminosulfonyl urea ACAT inhibitors and a method of lowering blood cholesterol levels therewith” (priority 1993, dated 1994).
pIC50: −log10 of the molar value. Counter-ions that a name gives are not always drawn. Like-named read-outs stand apart in the source and are kept apart here.

Assays:
[1] = target: T1, acyl-CoA: cholesterol acyltransferase (ACAT) (Oryctolagus cuniculus, UniProt G1SFD9); test: in vitro inhibition of ACAT (IAI), radiolabeled cholesterol oleate formation in rabbit intestinal microsomes; type: biochemical
T1 construct: in a tissue preparation containing rabbit intestinal microsomes; from tissue; host or cells: rabbit intestinal microsomes
T1 sequence (G1SFD9 1-524): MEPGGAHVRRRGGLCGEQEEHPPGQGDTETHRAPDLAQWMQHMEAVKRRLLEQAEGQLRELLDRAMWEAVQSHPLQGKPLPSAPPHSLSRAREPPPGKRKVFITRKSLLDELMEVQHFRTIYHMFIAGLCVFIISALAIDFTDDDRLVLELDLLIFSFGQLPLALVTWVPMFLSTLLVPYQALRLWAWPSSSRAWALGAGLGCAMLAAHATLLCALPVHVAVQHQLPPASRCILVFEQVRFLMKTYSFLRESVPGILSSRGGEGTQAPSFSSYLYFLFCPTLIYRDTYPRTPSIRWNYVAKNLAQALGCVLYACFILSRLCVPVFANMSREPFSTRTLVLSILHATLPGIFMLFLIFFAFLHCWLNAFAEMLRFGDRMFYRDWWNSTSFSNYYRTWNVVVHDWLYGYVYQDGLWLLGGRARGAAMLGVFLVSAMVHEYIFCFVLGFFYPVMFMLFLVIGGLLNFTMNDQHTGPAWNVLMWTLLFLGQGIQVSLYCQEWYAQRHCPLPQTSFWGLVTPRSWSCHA
Method: The ability of representative compounds of the present invention to inhibit ACAT was measured using an in vitro test more fully described in F. J. Field and R. G. Salone, Biochemica et Biophysica 712:557-570 (1982). The test assesses the ability of a test compound to inhibit the acylation of cholesterol by oleic acid by measuring the amount of radiolabeled cholesterol oleate formed from radiolabeled oleic acid in a tissue preparation containing rabbit intestinal microsomes.

Plasma TC = test: in vivo screen designated APCC, plasma total cholesterol in rats on high fat, high cholesterol diet; set-up: species or system male Sprague-Dawley rats; settings: read-out: % Change in Plasma TC Values (mg/dl)
Excerpt: In one in vivo screen designated APCC, male Sprague-Dawley rats (200 to 225 g) were randomly divided into treatment groups and dosed at 4 PM with either vehicle (CMC/Tween) or suspensions of compounds in vehicle. The normal chow diet was then replaced with a high fat, high cholesterol diet with 0.5% cholic acid. The rats consumed this diet ad libitum during the night and were sacrificed at 8 AM to obtain blood samples for cholesterol analysis using standard procedures. Statistical differences between mean cholesterol values for the same vehicle were determined using analysis of variance followed by Fisher's least significant test. Compounds were dosed at 30 mg/kg unless otherwise noted.

[2] = dosed at 30 mg/kg, rat, high fat, high cholesterol diet with 0.5% cholic acid

| Compound | change in vivo at 30 mg/kg (Plasma TC; [2]) | other results |
| --- | --- | --- |
| CC(C)c1cccc(C(C)C)c1NC(=O)NS(=O)(=O)N(C(C)C)C(C)C [Example 28, N-[2,6-bis(1-methylethyl)phenyl]-N'-[(diisopropylamino)sulfonyl]urea] | -60% | pIC50 [1]: 5.96 |
| CC(C)c1cccc(C(C)C)c1NC(=O)NS(=O)(=O)N(C(C)C)C(C)(C)C [Example 35, N-[2,6-bis(1-methylethyl)phenyl]-N'-[[(1,1-dimethylethyl)(1-methylethyl)amino]sulfonyl]urea] | -71% | – |
| CCC(C)N(C(C)CC)S(=O)(=O)NC(=O)Nc1c(C(C)C)cccc1C(C)C (centres unmarked) [Example 36, N-[2,6-bis(1-methylethyl)phenyl]-N'-[[bis(1-methylpropyl)amino]sulfonyl]urea] | -71% | – |
| CCCCCCCCCCCCCCN(C)S(=O)(=O)NC(=O)Nc1c(C(C)C)cccc1C(C)C [Example 37, N-[2,6-bis(l-methylethyl)phenyl]-N'-[(methyltetradecylamino)sulfonyl]urea] | -65% | – |
| CC(C)c1cccc(C(C)C)c1NC(=O)NS(=O)(=O)N1CCCC1 [Example 38, Urea, N-[2,6-bis(1-methylethyl)phenyl]-N'-(1-pyrrolidinylsulfonyl)] | -49% | – |
| CC(C)c1cccc(C(C)C)c1NC(=O)NS(=O)(=O)N1CCCCC1 [Example 39, Urea, N-[2,6 bis(1-methylethyl)phenyl]-N'-(1-piperidinylsulfonyl)] | -13% | – |
| CC(C)c1cccc(C(C)C)c1NS(=O)(=O)NC(=O)N(Cc1ccccc1)Cc1ccccc1 [Example 42, N,-[[[2,6-bis(1-methylethyl)phenyl]amino]sulfonyl]-N,N-bis(phenylmethyl) urea] | -44% | – |
| CCCCN(CCCC)S(=O)(=O)NC(=O)Nc1c(C(C)C)cccc1C(C)C [Example 43, N-[2,6-bis(1-methylethyl)phenyl]-N'-[(dibutylamino)sulfonyl]urea, monosodium salt] | – | change in vivo at 30 mg/kg (Plasma TC; Rattus norvegicus): -68% |
| CCCCN(CCCC)S(=O)(=O)N(C)C(=O)Nc1c(C(C)C)cccc1C(C)C [Example 44] | -8% | pIC50 ([1]; rabbit intestinal microsomes, read-out: IAI IC50): < 5.30 |
